No end group written: not given here.
Test system: cells
Assay: MTT assay for cytotoxicity
Assay type: cell-based
Settings: within a range of used concentrations; FIGS. 3a and 3b

Row | Sequence | cytotoxicity
1 | VEHDKEFFHPRYHHR [BFP 2, Val-Glu-His-Asp-Lys-Glu-Phe-Phe-His-Pro-Arg-Tyr-His-His-Arg] | neither BFP 1 nor BFP 2 are toxic to cells
2 | GQGFSYPYKAVFSTQ [BFP 1, Gly-Gln-Gly-Phe-Ser-Tyr-Pro-Tyr-Lys-Ala-Val-Phe-Ser-Thr-Gln] | neither BFP 1 nor BFP 2 are toxic to cells

Source: patent EP2311482A1, “Osteogenic synthetic BMP-7 peptides, pharmaceutical compositions cell culture medium containing same” (Industry Foundation Of Chonnam National University, priority 2009, dated 2011)
